Laboratory results as given in US20250059179A1, “Heterocyclic Compounds and Methods of Use” (AMGEN INC., priority 2021, published 2025).
Like-named read-outs stand apart in the source and are kept apart here.

What was measured:
[1] = target: His-tagged KRAS G12D protein (Homo sapiens, UniProt P01116, G12D); test: KRAS G12D TR-FRET Assay; assay type: binding; conditions: biotinylated KRPep-2d substrate, 10 μM GDP;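 further: europium anti-His antibody paired with streptavidin-d2 as FRET partners, initial 30 min incubation, then peptide 1 h and detection reagents 1 h, all at room temperature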
[2] = test system: Phosphorylation of ERK1/2 in A-427 cells; test: Phospho-ERK1/2 MSD Assay; assay type: cell-based; conditions: 2 h compound treatment, read-out: pERK (A427 cells) IC50
Summary of the method: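 ERK1/2 phosphorylation measured by Meso Scale whole-cell lysate assay after A-427 cells were exposed to a titration of compound for 2 h at 37 °C.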

[3] = target: GDP-bound KRAS protein (aa 1-169), containing both G12D and C118A amino acid substitutions (Homo sapiens, UniProt P01116, C118A/G12D); test: KRAS G12D Coupled Nucleotide Exchange Assay; assay type: biochemical; conditions: 2 h compound pre-incubation; SOS-mediated nucleotide exchange, cRAF AlphaScreen readout;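 further: IC50 obtained by fitting the AlphaScreen signal with a four-parameter logistic curve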
GDP-bound KRAS protein (aa 1-169), containing both G12D and C118A amino acid substitutions, sequence (P01116 1-169 isoform P01116-2 G12D/C118A): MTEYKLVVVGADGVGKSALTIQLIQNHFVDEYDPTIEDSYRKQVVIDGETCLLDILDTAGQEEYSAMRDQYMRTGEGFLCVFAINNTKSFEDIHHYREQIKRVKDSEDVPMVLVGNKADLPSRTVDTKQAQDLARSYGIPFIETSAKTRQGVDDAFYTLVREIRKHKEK

His-tagged KRAS G12D protein, sequence (P01116 1-188 isoform P01116-2 G12D): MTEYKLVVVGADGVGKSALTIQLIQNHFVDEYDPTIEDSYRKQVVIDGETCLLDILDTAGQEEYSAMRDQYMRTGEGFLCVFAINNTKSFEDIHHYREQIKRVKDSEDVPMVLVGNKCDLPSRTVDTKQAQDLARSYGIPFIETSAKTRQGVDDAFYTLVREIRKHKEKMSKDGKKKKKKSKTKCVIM

IC50 [2] [nM]	SMILES	IC50 [1] [nM]	IC50 ([2]; Homo sapiens, A-427, 2 h) [nM]	Avg 2 h Coupled Exchange IC50 [3] [nM]
–	CN1C[C@H](F)C[C@H]1COc1nc(N2[C@@H]3CNC[C@H]2COC3)c2cc(Cl)c(-c3ccc(F)c4sc(N)nc34)c(F)c2n1 [Example 125, 4-(4-((1R,5S)-3-oxa-7,9-diazabicyclo[3.3.1]nonan-9-yl)-6-chloro-8-fluoro-2-(((2S,4R)-4-fluoro-1-methylpyrrolidin-2-yl)methoxy)quinazolin-7-yl)-7-fluorobenzo[d]thiazol-2-amine]	6	369	9
–	Nc1nc2c(-c3c(Cl)cc4c(N5[C@@H]6CNC[C@H]5COC6)nc(OCC56CCCN5CC(F)(F)C6)nc4c3F)ccc(F)c2s1 (stereo partly drawn) [Example 126, 4-(4-((1R,5S)-3-oxa-7,9-diazabicyclo[3.3.1]nonan-9-yl)-6-chloro-2-((2,2-difluorotetrahydro-1H-pyrrolizin-7a(5H)-yl)methoxy)-8-fluoroquinazolin-7-yl)-7-fluorobenzo[d]thiazol-2-amine]	12	896	10
–	Nc1nc2c(-c3cc4nc(OC[C@@]56CCCN5C[C@H](F)C6)nc(N5C[C@H]6CC[C@@H](C5)N6)c4cc3F)ccc(F)c2s1 [Example 132, 4-(4-((1R,5S)-3,8-diazabicyclo[3.2.1]octan-3-yl)-6-fluoro-2-(((2R,7aS)-2-fluorotetrahydro-1H-pyrrolizin-7a(5H)-yl)methoxy)quinazolin-7-yl)-7-fluorobenzo[d]thiazol-2-amine]	3	440	4
–	Nc1nc2c(-c3c(Cl)cc4c(N5C[C@H]6CC[C@@H](C5)N6)nc(OC[C@@]56CCCN5C[C@H](F)C6)nc4c3F)ccc(F)c2s1 [Example 137, 4-(4-((1R,5S)-3,8-diazabicyclo[3.2.1]octan-3-yl)-6-chloro-8-fluoro-2-(((2R,7aS)-2-fluorotetrahydro-1H-pyrrolizin-7a(5H)-yl)methoxy)quinazolin-7-yl)-7-fluorobenzo[d]thiazol-2-amine]	3	8	2
–	Nc1nc2c(-c3ccc4c(N5C[C@H]6CC[C@@H](C5)N6)nc(OC[C@@]56CCCN5C[C@H](F)C6)nc4c3)ccc(F)c2s1 [Example 133, 4-(4-((1R,5S)-3,8-diazabicyclo[3.2.1]octan-3-yl)-2-(((2R,7aS)-2-fluorotetrahydro-1H-pyrrolizin-7a(5H)-yl)methoxy)quinazolin-7-yl)-7-fluorobenzo[d]thiazol-2-amine]	74	4440	6
–	Nc1nc2c(-c3c(Cl)cc4c(N5C[C@@H]6CC[C@H]5CN6)nc(OC[C@@]56CCCN5C[C@H](F)C6)nc4c3F)ccc(F)c2s1 [Example 38, 4-(4-((15,4S)-2,5-diazabicyclo[2.2.2]octan-2-yl)-6-chloro-8-fluoro-2-(((2R,7aS)-2-fluorotetrahydro-1H-pyrrolizin-7a(5H)-yl)methoxy)quinazolin-7-yl)-7-fluorobenzo[d] thiazol-2-amine]	6	1090	13
–	Nc1nc2c(-c3c(Cl)cc4c(N5[C@@H]6CC[C@H]5CNC6)nc(OC[C@@]56CCCN5C[C@H](F)C6)nc4c3F)ccc(F)c2s1 [Example 2, 4-(4-((1R,5S)-3,8-diazabicyclo[3.2.1]octan-8-yl)-6-chloro-8-fluoro-2-(((2R,7aS)-2-fluorotetrahydro-1H-pyrrolizin-7a(5H)-yl)methoxy)quinazolin-7-yl)-7-fluorobenzo[d] thiazol-2-amine]	5	23	4
7910	Nc1nc2c(-c3c(Cl)cc4c(N5CC6CNCC5C6)nc(OC[C@@]56CCCN5C[C@H](F)C6)nc4c3F)ccc(F)c2s1 (single isomer, unassigned) [Example 30]	96	–	15
–	CN1C[C@H](F)C[C@H]1COc1nc(N2C[C@H]3C[C@@H](C2)N3)c2cc(Cl)c(-c3ccc(F)c4sc(N)nc34)c(F)c2n1 [Example 7, 4-(4-((1R,5S)-3,6-diazabicyclo[3.1.1]heptan-3-yl)-6-chloro-8-fluoro-2-(((2S,4R)-4-fluoro-1-methylpyrrolidin-2-yl)methoxy)quinazolin-7-yl)-7-fluorobenzo[d] thiazol-2-amine]	12	531	6
–	Nc1nc2c(-c3c(Cl)cc4c(N5[C@@H]6CC[C@H]5CNC6)nc(OC[C@]56CCCN5C[C@H](F)C6)nc4c3F)ccc(F)c2s1 [Example 123, 4-(4-((1R,5S)-3,8-diazabicyclo[3.2.1]octan-8-yl)-6-chloro-8-fluoro-2-(((2R,7aR)-2-fluorotetrahydro-1H-pyrrolizin-7a(5H)-yl)methoxy)quinazolin-7-yl)-7-fluorobenzo[d]thiazol-2-amine]	5	69	6
–	Nc1nc2c(-c3c(Cl)cc4c(N5CCCNCC5)nc(OC[C@@]56CCCN5C[C@H](F)C6)nc4c3F)ccc(F)c2s1 [Example 28, 4-(6-chloro-4-(1,4-diazepan-1-yl)-8-fluoro-2-(((2R,7aS)-2-fluorotetrahydro-1H-pyrrolizin-7a(5H)-yl)methoxy)quinazolin-7-yl)-7-fluorobenzo[d] thiazol-2-amine]	8	2300	3
–	Nc1nc2c(-c3cc4nc(OC[C@@]56CCCN5C[C@H](F)C6)nc(N5[C@@H]6CC[C@H]5CNC6)c4cc3F)ccc(F)c2s1 [Example 138, 4-(4-((1R,5S)-3,8-diazabicyclo[3.2.1]octan-8-yl)-6-fluoro-2-(((2R,7aS)-2-fluorotetrahydro-1H-pyrrolizin-7a(5H)-yl)methoxy)quinazolin-7-yl)-7-fluorobenzo[d]thiazol-2-amine]	30	1700	11
–	CCc1cc2c(N3C[C@H]4CC[C@@H](C3)N4)nc(OC[C@@]34CCCN3C[C@H](F)C4)nc2c(F)c1-c1ccc(F)c2sc(N)nc12 [Example 153, 4-(4-((1R,5S)-3,8-diazabicyclo[3.2.1]octan-3-yl)-6-ethyl-8-fluoro-2-(((2R,7aS)-2-fluorotetrahydro-1H-pyrrolizin-7a(5H)-yl)methoxy)quinazolin-7-yl)-7-fluorobenzo[d]thiazol-2-amine]	4	11	6
–	Nc1nc2c(-c3c(Cl)cc4c(N5CC6CNCC5C6)nc(OC[C@@]56CCCN5C[C@H](F)C6)nc4c3F)ccc(F)c2s1 (single isomer, unassigned) [Example 29]	107	4730	13
–	Nc1nc2c(-c3c(Cl)cc4c(N5CCNCC5)nc(OC[C@@H]5C[C@@H](F)CN5)nc4c3F)cccc2s1 [Example 47, 4-(6-chloro-8-fluoro-2-(((2S,4R)-4-fluoro-pyrrolidin-2-yl)methoxy)-4-(piperazin-1-yl)quinazolin-7-yl)benzo[d] thiazol-2-amine]	81	> 25000	26
–	CN1CC[C@@H]1COc1nc(N2CCNCC2)c2cc(Cl)c(-c3cccc4sc(N)nc34)c(F)c2n1 [Example 58, 4-(6-chloro-8-fluoro-2-(((R)-1-methylazetidin-2-yl)methoxy)-4-(piperazin-1-yl)quinazolin-7-yl)benzo[d] thiazol-2-amine]	444	18200	176
